Columns and labels:
[1] = test system: patients with glucose transporter 1 deficiency syndrome (GLUT1); settings: cited from earlier work
[2] = Increase in circulating ketone level after administration of D-BHB, D-BHV and D-1,3BD in various ratios, subjects at rest; format: in vivo, human; settings: for Max change in mMol/L (increase in circulating ketone level): 10 g dose, three human subjects at rest, composition given as % D-BHB acid; for prolonged rise of blood ketone levels: based on measured plasma levels of FIG. 1
Description: (§1) Examples include using a composition including D-BHB, D-BHV, and D-1,3BD in a subject at rest. The ketotic efficiency represents the net elevation of circulating ketones a ketone supplement affects over time in an individual. Ketotic efficiency may be represented as:
As illustrated by the examples of FIG. 1, these exemplary compositions can advantageously elevate circulating ketones by approximately two times greater than other known compositions. Such a composition can sustain ketonemia for longer than either D-BHB or D-1,3BD can when ingested alone by a subject of a given weight as shown by the 100% line (i.e., contains D-BHB, but not D-1,3BD) and the 0% line (i.e., contains only D-1,3BD, but not D-BHB).
As shown in the following table, the increase in circulating ketone level with a 10 g dose in three human subjects at rest was maximal at between 45-55% D-BHB in the tested compositions.

[3] = Ketotic efficiency (net elevation of circulating ketones over time per dose); format: in vivo, human; settings: person at rest, concentration of DBHB + DBHV in composition with D-1,3BD; for 1 hour ketotic efficiency: 1 hour post-administration; for 2 hours ketotic efficiency: 2 hours post-administration
Description: as §1
where mMol/L is the concentration of circulating p-hydroxybutyrate in the blood, g is the total dose of the combined D-BHB, D-BHV, and D-1,3,BD in grams, kg is the mass of the individual in kilograms, and t is an increment of time in minutes.
The ketotic efficiency of the D-BHB, D-BHV, and D-1,3BD blend measured over of one hour in this exemplary study is 43% to 104% greater than the administration of pure (D)-1,3 butanediol or pure (D)-β-hydroxybutyric acid alone, respectively. While this example pertains to a fasted subject at rest, the relative utility of blended vs pure constituents has also been observed in fed and active subjects.
FIG. 2 represents the expected ketosis for a person at rest with a 0.13 g/kg dose of (D)-β-hydroxybutyric acid, (D)-β-hydroxyvaleric acid, and (D)-1,3 butanediol over time for the periods shown. […] Administration of examples in accordance with the present disclosure are expected to cause efficient, prolonged rises in circulating blood ketone levels in a manner that is unexpected based on the current literature. As shown in the following table, the highest efficiency at both 1 and 2 hours post-administration was obtained at 45% D-BHB+D-BHV (0.96:0.04) to 55% D-1,3BD and the lowest efficiency was observed when administering D-BHB or D-1,3BD alone.

| Structure (SMILES) | decrease of paroxysmal non-epileptic manifestations [1] [%] | Max change in mMol/L (increase in circulating ketone level) [2] [mmol/L] | prolonged rise of blood ketone levels [2] | 1 hour ketotic efficiency [3] [kg·mmol·min/g/L] | 2 hours ketotic efficiency [3] [kg·mmol·min/g/L] |
| --- | --- | --- | --- | --- | --- |
| CCCCCCC(=O)OCC(COC(=O)CCCCCC)OC(=O)CCCCCC [triheptanoin, Triheptanoin] | 90 |  |  |  |  |
| CC(O)CC(=O)O (stereo not drawn) [100%, (D)-β-hydroxybutyric acid] |  | 0.9 | A similar result | 335 | 566 |
| CC(O)CCO (stereo not drawn) [0%, (D)-1,3 butanediol] |  | 0.8 | does not cause a prolonged rise of blood ketone levels | 266 | 462 |
